Source: the NIST ThermoML archive (doi:10.1021/je700265d)
Several values for one entry are separate records, joined by “and”; a condition that tells them apart may be missing. Equal entries are not always repeated. Numbers after ± are expanded uncertainties.

Experiment: mn = molality of the nth substance listed, in mol/kg
Details: Liquid, Vibrating tube method

[Na+].[OH-] [sodium hydroxide] + O
mass density
Details | 2000 kPa | 10000 kPa
323.15 K, m1 = 0.09892 | 993.08 ± 2 kg/m3 [middle of 4 runs] | –
323.15 K, m1 = 0.1004 | – | 996.538 ± 2 kg/m3 and 996.527 ± 2 kg/m3
323.15 K, m1 = 0.1011 | – | 996.561 ± 2 kg/m3 and 996.552 ± 2 kg/m3
323.15 K, m1 = 0.1999 | 997.265 ± 2 kg/m3 | –
323.15 K, m1 = 0.2008 | – | 1000.68 ± 2 kg/m3 and 1000.69 ± 2 kg/m3
323.15 K, m1 = 0.4993 | – | 1012.82 ± 2 kg/m3
323.15 K, m1 = 0.4998 | 1009.52 ± 2 kg/m3 and 1009.53 ± 2 kg/m3 | –
323.15 K, m1 = 1.002 | – | 1032.59 ± 2.1 kg/m3
323.15 K, m1 = 1.006 | 1029.58 ± 2.1 kg/m3 and 1029.59 ± 2.1 kg/m3 | –
323.15 K, m1 = 1.998 | – | 1069.82 ± 2.2 kg/m3
323.15 K, m1 = 2.006 | 1067.14 ± 2.2 kg/m3 | –
323.15 K, m1 = 2.994 | 1102.23 ± 2.2 kg/m3 and 1102.25 ± 2.2 kg/m3 | –
323.15 K, m1 = 2.999 | – | 1104.9 ± 2.3 kg/m3
323.15 K, m1 = 4 | 1135.56 ± 2.3 kg/m3 and 1135.59 ± 2.3 kg/m3 | 1137.82 ± 2.3 kg/m3
323.15 K, m1 = 4.927 | 1164.37 ± 2.4 kg/m3 and 1164.36 ± 2.4 kg/m3 | –
323.15 K, m1 = 5.002 | – | 1168.71 ± 2.4 kg/m3
323.15 K, m1 = 5.963 | 1194.98 ± 2.5 kg/m3 | –
323.15 K, m1 = 5.984 | – | 1197.21 ± 2.5 kg/m3
323.15 K, m1 = 6.887 | 1219.57 ± 2.5 kg/m3 | –
323.15 K, m1 = 6.998 | – | 1224.73 ± 2.6 kg/m3
323.15 K, m1 = 8 | 1248.12 ± 2.6 kg/m3 | –
323.15 K, m1 = 8.191 | – | 1254.93 ± 2.7 kg/m3
373.15 K, m1 = 0.1071 | – | 967.434 ± 1.9 kg/m3 and 967.432 ± 1.9 kg/m3
373.15 K, m1 = 0.2063 | – | 971.522 ± 2 kg/m3
373.15 K, m1 = 0.5006 | – | 983.362 ± 2 kg/m3
373.15 K, m1 = 1.007 | – | 1003.1 ± 2 kg/m3
373.15 K, m1 = 1.998 | – | 1039.6 ± 2.1 kg/m3
373.15 K, m1 = 3 | – | 1074.35 ± 2.2 kg/m3
373.15 K, m1 = 3.968 | – | 1105.88 ± 2.3 kg/m3
373.15 K, m1 = 4.987 | – | 1137.02 ± 2.3 kg/m3
373.15 K, m1 = 5.995 | – | 1165.76 ± 2.4 kg/m3
373.15 K, m1 = 7 | – | 1192.66 ± 2.5 kg/m3 and 1192.78 ± 2.5 kg/m3
373.15 K, m1 = 8.191 | – | 1222.53 ± 2.6 kg/m3
423.15 K, m1 = 0.102 | – | 926.887 ± 1.9 kg/m3 and 926.893 ± 1.9 kg/m3
423.15 K, m1 = 0.2019 | – | 931.217 ± 1.9 kg/m3
423.15 K, m1 = 0.4993 | – | 943.749 ± 1.9 kg/m3
423.15 K, m1 = 1.004 | – | 964.154 ± 1.9 kg/m3
423.15 K, m1 = 2.002 | – | 1002.15 ± 2 kg/m3
423.15 K, m1 = 3.005 | – | 1037.71 ± 2.1 kg/m3
423.15 K, m1 = 4.007 | – | 1070.87 ± 2.2 kg/m3
423.15 K, m1 = 5.013 | – | 1101.94 ± 2.3 kg/m3 and 1102 ± 2.3 kg/m3
423.15 K, m1 = 5.983 | – | 1129.99 ± 2.3 kg/m3
423.15 K, m1 = 6.994 | – | 1157.33 ± 2.4 kg/m3
423.15 K, m1 = 7.997 | – | 1182.78 ± 2.5 kg/m3
473.15 K, m1 = 0.1008 | – | 875.988 ± 1.8 kg/m3 and 876.005 ± 1.8 kg/m3 and 876.003 ± 1.8 kg/m3
473.15 K, m1 = 0.1998 | – | 880.725 ± 1.8 kg/m3
473.15 K, m1 = 0.498 | – | 894.456 ± 1.8 kg/m3 and 894.426 ± 1.8 kg/m3
473.15 K, m1 = 1 | – | 916.262 ± 1.9 kg/m3
473.15 K, m1 = 1.996 | – | 956.424 ± 1.9 kg/m3 and 956.451 ± 1.9 kg/m3
473.15 K, m1 = 3.001 | – | 993.727 ± 2 kg/m3
473.15 K, m1 = 3.979 | – | 1027.36 ± 2.1 kg/m3
473.15 K, m1 = 4.99 | – | 1059.7 ± 2.2 kg/m3
473.15 K, m1 = 5.981 | – | 1089.06 ± 2.2 kg/m3
473.15 K, m1 = 6.966 | – | 1116.25 ± 2.3 kg/m3 and 1116.27 ± 2.3 kg/m3
473.15 K, m1 = 7.982 | – | 1142.4 ± 2.4 kg/m3
523.15 K, m1 = 0.1 | – | 811.722 ± 1.7 kg/m3 and 811.711 ± 1.7 kg/m3
523.15 K, m1 = 0.2004 | – | 817.364 ± 1.7 kg/m3
523.15 K, m1 = 0.4995 | – | 833.124 ± 1.7 kg/m3 and 833.104 ± 1.7 kg/m3
523.15 K, m1 = 1.002 | – | 857.633 ± 1.8 kg/m3 and 857.68 ± 1.8 kg/m3
523.15 K, m1 = 2.005 | – | 902.001 ± 1.8 kg/m3
523.15 K, m1 = 3.005 | – | 942.171 ± 1.9 kg/m3
523.15 K, m1 = 3.999 | – | 977.951 ± 2 kg/m3
523.15 K, m1 = 5.003 | – | 1011.55 ± 2.1 kg/m3
523.15 K, m1 = 6.005 | – | 1042.56 ± 2.1 kg/m3 and 1042.64 ± 2.1 kg/m3
523.15 K, m1 = 7.002 | – | 1071.15 ± 2.2 kg/m3 and 1071.04 ± 2.2 kg/m3
523.15 K, m1 = 7.999 | – | 1097.71 ± 2.3 kg/m3 and 1097.55 ± 2.3 kg/m3
573.15 K, m1 = 0.1122 | – | 724.654 ± 1.5 kg/m3 and 724.632 ± 1.5 kg/m3
573.15 K, m1 = 0.2173 | – | 732.398 ± 1.5 kg/m3 and 732.406 ± 1.5 kg/m3
573.15 K, m1 = 0.5495 | – | 754.575 ± 1.6 kg/m3 and 754.588 ± 1.6 kg/m3
573.15 K, m1 = 1.105 | – | 787.201 ± 1.6 kg/m3 and 787.19 ± 1.6 kg/m3
573.15 K, m1 = 1.996 | – | 832.976 ± 1.7 kg/m3 and 833.161 ± 1.7 kg/m3
573.15 K, m1 = 3.004 | – | 878.767 ± 1.8 kg/m3
573.15 K, m1 = 3.998 | – | 918.89 ± 1.9 kg/m3
573.15 K, m1 = 4.999 | – | 955.585 ± 2 kg/m3
573.15 K, m1 = 6.004 | – | 989.12 ± 2 kg/m3
573.15 K, m1 = 6.999 | – | 1019.78 ± 2.1 kg/m3
573.15 K, m1 = 7.997 | – | 1047.99 ± 2.2 kg/m3
